US5888762A, “Neurotropic growth factors comprising a homeobox peptide” (Centre National De La Recherche Scientifique (CNRS), priority 1994, dated 1999)
Ends that are not written are not given here.

How the values were obtained:
[1] = system: neurons removed from rat embryos (mesencephalon, spinal cord, cortex); assay: Biological effect of pAntp on neuritic growth of cultured neurons; assay type: cell-based; conditions: rat embryo neurons in CDM medium, peptide 9 µg/ml (equivalent to 1.3M), 24 h
Method: The neurons removed from rat embryos (E14 to E 16) in various regions of the brain (mesencephalon, spinal cord, cortex), are inoculated into a defined medium (CHAMAK and PROCHIANTZ, DEVELOPMENT, 106, 483, 1989) which permits the survival of only the neuronal cells (CDM medium).
The peptide is added to the nerve cells at a concentration of […] (equivalent to 1.3M).

[2] = system: dissociated embryonic cells; assay: Confocal microscopy of fluoresceinated peptides: internalization and nuclear accumulation; assay type: cell-based, rat; conditions: 2 hours incubation, cells cultured 1 day before fixation
Excerpt: The cells were then washed, plated and cultured for 1 day before fixation.

[3] = system: dissociated rat embryonic neurons; assay: Distribution of 35S-methionine labelled peptides in cell compartments and medium; assay type: cell-based; conditions: for internalization / translocation through the membrane: 35S-labelled peptides, 2 hours; for MEDIUM (peptide distribution, radioactivity in fraction) / NUCLEAR (peptide distribution, radioactivity in fraction) / POST-NUCLEAR (peptide distribution, radioactivity in fraction): 2 hours incubation, mean ± standard deviation of 6 experiments; for share of the peptides that reach the nuclei: within 2 hours
Method: Peptides pAntp50A, pAntp48S, and pAntp40P2, labelled in E. coli with ^35 S-methionine were purified and added to dissociated rat embryonic neurons. After incubation for 2 hours, the medium was recovered by centrifugation and, after lysis of the cells with NP40, nuclear and post-nuclear fractions were isolated.
Identity of the radioactive material present in the nuclei was analysed by gel electrophoresis.
After lysis of the neurons, peptide distribution in the different cell compartments and in the medium was quantified by determination of radioactivity in each fraction.

[4] = system: living neurons; assay: Penetration of biotinylated pAntp fragments encompassing helix 3 into living neurons; assay type: cell-based; conditions: biotinylated peptides 10 μg/ml, 37° C., 3 hours, fluorinated streptavidin
Method: These peptides (10 μg/ml) were separately incubated with living neurons, at 37° C. for 3 hours.
After washing and fixation of the cells, the localisation of the peptides is checked by use of fluorinated streptavidin.

Row | Substance | neuritic growth [1] | uptake and nuclear accumulation by confocal microscopy [2] | internalization / translocation through the membrane [3] | MEDIUM (peptide distribution, radioactivity in fraction) [3] [%] | NUCLEAR (peptide distribution, radioactivity in fraction) [3] [%] | POST-NUCLEAR (peptide distribution, radioactivity in fraction) [3] [%] | share of the peptides that reach the nuclei [3] [%] | intracellular localization of the fluorescent label (penetration) [4]
1 | pAntp50A: mutant recombinant pAntp, Glu^50 →Ala^50 substitution in helix 3 plus His^36 →Tyr cloning artifact (SEQ ID NO: 10) | none of the mutants pAntp40P2, pAntp50A, and pAntp48S was able to promote neurite growth | taken up by all cells in the population and significant concentrations of the peptides accumulated in the nuclei | internalized rapidly | 75.0 ± 6 | 19.0 ± 5 | 6.0 ± 1 | 10 to 20 | 
2 | pAntp 41-60: synthetic biotinylated peptide, amino-acids 41-60 of pAntp (SEQ ID NO: 7) (TERQIKIWFQNRRMKWKKEN; also: biotinylated, site not given here) |  |  |  |  |  |  |  | intracellular localization of the fluorescent label
3 | pAntp40P2: mutant pAntp, Leu^40 and Thr^41 substituted by two proline residues (SEQ ID NO: 12) | none of the mutants pAntp40P2, pAntp50A, and pAntp48S was able to promote neurite growth | taken up by all cells in the population and significant concentrations of the peptides accumulated in the nuclei | internalized rapidly | 87.5 ± 2.5 | 11.5 ± 2 | 1.0 ± 0.5 | 10 to 20 | 
4 | pAntp 41-55: synthetic biotinylated peptide, amino-acids 41-55 of pAntp (SEQ ID NO: 9) |  |  |  |  |  |  |  | not
5 | pAntp48S: mutant pAntp, Trp^48, Phe^49 and Glu^50 in helix 3 replaced by a single serine residue (SEQ ID NO. 11) | none of the mutants pAntp40P2, pAntp50A, and pAntp48S was able to promote neurite growth |  | unable to translocate through the membrane | 96.5 ± 1 | 2.5 ± 0.5 | 1.0 ± 0.5 |  | 
6 | pAntp 43-58: synthetic biotinylated peptide, amino-acids 43-58 of pAntp, helix 3 (SEQ ID NO: 8) (RQIKIWFQNRRMKWKK; also: biotinylated, site not given here) |  |  |  |  |  |  |  | intracellular localization of the fluorescent label
